From article PMC9154793, “Design, synthesis, and biological evaluation of triazole-pyrimidine-methylbenzonitrile derivatives as dual A2A/A2B adenosine receptor antagonists” (Journal of Enzyme Inhibition and Medicinal Chemistry, 2022) come the findings set out here.

The nature of this data set: Metabolic stability in human liver microsomes. It is filed as in vitro ADME. How it is done: The metabolic stability is an important focus for further compound optimisation. Compounds 7f, 7i, and AB928 were chosen to evaluate the stability in rat liver microsomes and human liver microsomes. For the microsomal metabolic experiment, 7-ethoxycoumarin (7-EC) was used as a control. As shown in Table 4 (see Supporting information for raw data), the CLint(liver) of 7-EC in rats and humans was 10.0 and 9.0 ml/min/g liver, respectively, indicating the experimental test system was reliable.
Metabolic stabilities of compounds 7f, 7i, and AB928 in liver microsomes were studied with pooled human (male) liver microsomes solution (20 mg/ml) and male Sprague–Dawley rats pooled liver microsomes solution (20 mg/ml) purchased from Research Institute for Liver Diseases (Shanghai) Co. Ltd. Both liver microsomes solutions (140 μl) were diluted by 3948 μl of water and 280 μl of phosphate buffered saline. The assay procedure: 640 μl of diluted liver microsomes solution was added to a solution of compound working solution (16 μl, 25 μM in DMSO) and the mixed solution was incubated at 37 °C for 5 min. Then 160 μl of NADPH generating system was added and take out 100 μl from the mixed solution was added 200 μl of acetonitrile solution to stop the reaction at the set incubation time (0 min, 10 min, 20 min, 30 min, 40 min, 50 min, and 60 min). All stopped reaction solutions were vortex mixed (3 min) and centrifuged (10,000 rpm, 4 °C for 10 min). Then 50 μl of the supernatant was analysed by UPLC-MS/MS system (details of the analytical method see Supporting information). […]
8. Metabolic stability in human and rat liver microsomes
Metabolic stabilities of compounds 7f, 7i and AB928 in liver microsomes were studied with pooled human (male) liver microsomes solution (20 mg/mL) and male Sprague - Dawley rats pooled liver microsomes solution (20 mg/mL) purchased from Research Institute for Liver Diseases (Shanghai) Co. Ltd. Both liver microsomes solutions (140 μL) were diluted by 3948 μL of water and 280 μL of phosphate buffered saline. The assay procedure: 640 μL of diluted liver microsomes solution was added to a solution of compound working solution (16 μL, 25 μM in DMSO) and the mixed solution was […]
(1 picture or pasted object on this page, not shown here) […]
incubated at 37 ℃ for 5 min. Then 160 μL of NADPH generating system was added and take out 100 μL from the mixed solution was added 200 μL of acetonitrile solution to stop the reaction at the set incubation time (0 min, 10 min, 20 min, 30 min, 40 min, 50 min, and 60 min). All stopped reaction solutions were vortex mixed (3 min) and centrifuged (10000 rpm, 4 ℃ for 10 min). Then 50 μL of the supernatant was analyzed […]
8.2 Chromatography and mass spectrometry conditions
UPLC was performed using an […] UPLC system (Waters, Milford, MA, […]
USA). Separation was achieved on a Waters BEH C18 column(100 mm × 2.1 mm， 1.7 μm) at 40 ℃. The injection volume of the sample solution was 5 μL. The mobile phase consisted of water (0.1% formic acid and ammonium acetate) and acetonitrile solution (20:80, v/v) at a flow rate of 0.4 mL/min within a running time of 6 min. Mass spectrometric analysis was performed on a Waters Xevo TQ-S triple quadrupole instrument using electrospray ionization in positive mode. Quantification was performed using multiple reaction monitoring (MRM) mode to monitor precursor-product ion transitions (Table S1).
Table S1. Conditions of MRM Detection. […]
Table S2. Raw data of metabolic stability in human and rat liver microsomes. […]
(min) Hum Rat Hum Rat Hum Rat Hum Rat
9. Analytical method of pharmacokinetics assay
Animal experiments were performed according to the institutional ethical guidelines on animal care and approved by the Institute Animal Care and Use Committee at Binzhou […]
Female Bal b/c mice (sourced from Jinan Pengyue Experimental Animal Breeding […]

As for `Cc1c(C#N)cccc1-c1cc(-c2cn(Cc3cccc(C(N)=O)n3)nn2)nc(N)n1` [Compound 7i, 6-((4-(2-Amino-6-(3-cyano-2-methylphenyl)pyrimidin-4-yl)-1H-1,2,3-triazol-1-yl)methyl)picolinamide], the “metabolism on human liver microsomes (in words)” value is listed as “hardly metabolised on human liver microsomes”. Besides, where the note is “human, microsomes”, the “CLint(liver) Hum” value is 0.06 mL/min/g. Under “male, human, microsomes”, the half-life (as a rule, the time in which the quantity being followed falls by half) at 0.49 µM was 19.2 h; the share remaining at 10 min, 0.49 µM was 98%; the fraction remaining at 20 min, 0.49 µM came out at 108%; the fraction remaining at 0.5 h, 0.49 µM amounted to 116%. For the setting “male, human, microsomes”, the amount remaining at 40 min, 0.49 µM was 101%; the share remaining at 50 min, 0.49 µM was 95%; the amount remaining at 1 h, 0.49 µM turned out to be 98.8%.
For the compound `Cc1c(C#N)cccc1-c1cc(-c2cn(Cc3cccc(C#N)n3)nn2)nc(N)n1` [Compound 7f, 6-((4-(2-Amino-6-(3-cyano-2-methylphenyl)pyrimidin-4-yl)-1H-1,2,3-triazol-1-yl)methyl)picolinonitrile], the “metabolism on human liver microsomes (in words)” value is recorded as “hardly metabolised on human liver microsomes”. For the setting “male, human, microsomes”, the share remaining at 10 min, 0.49 µM was 96.3%; the fraction remaining at 20 min, 0.49 µM turned out to be 96.5%; the fraction remaining at 0.5 h, 0.49 µM amounted to 107%; the fraction remaining at 40 min, 0.49 µM stood at 98.4%. Also, under “male, human, microsomes”, the fraction remaining at 50 min, 0.49 µM came out at 102% and the share remaining at 1 h, 0.49 µM was found to be 105%.
